The target of assay [1] is Recombinant His-tagged human PARG protein (Homo sapiens (Human), UniProt Q86W56). The assay can be described thus: PARG enzymatic assay (TFMU-ADPr fluorescence). The assay is classed as biochemical. To be noted: 1 nM enzyme, 200 μM TFMU-ADPr, read after 30 minutes. The procedure:
Inhibition of PARG enzymatic activity by compounds was determined as follows: Recombinant His-tagged human PARG protein expressed in Sf21 insect cells (Adipogen AG, #40T-0022) was aliquoted and stored at −80° C. until use. The artificial enzyme substrate 4-(trifluoromethyl)umbelliferone (TFMU)-ADPr was prepared essentially as described (Drown B S et al, Cell Chemical Biology 2018) and stored at −20° C. as 10 mM stock solutions in DMSO (dimethyl sulfoxide) until use. For reactions, typical final concentration of the enzyme was 1 nM and of the TFMU-ADPr 200 μM. Reactions were carried out in black 384-well low volume round bottom assay plates (Corning, #4514) in a final volume of 10 μL. To this end, PARG was diluted to 1.67 nM in reaction buffer (50 mM K2HPO4, 50 mM KCl, 10 mM β-mercaptoethanol, pH 7.4) and 6 μL were dispensed per assay well using a multichannel pipette. Then compound was dispensed into each well using an Echo dispenser (BeckmanCoulter) to yield the pre-specified final concentration of the range of concentrations to be tested (typically 8-point serial concentrations ranging from either from 0.01 to 10 μM, or from 0.001 to 1 μM, or from 0.0001 to 0.1 μM), and being volume-corrected with 100% DMSO (0.5% final DMSO concentration in reaction mixtures). Plates were mixed, and after 15 minutes 4 μL TFMU-ADPr was added into each well using a multichannel pipette followed by brief mixing. Fluorescence intensity signals were then measured after 30 minutes on an EnVision microplate reader (PerkinElmer) using 380/10 nm and 535/25 nm filters for the excitation and emission, respectively (gain: 150). The assay window was set using DMSO control (top) and a control containing no PARG enzyme (bottom). Delta values were plotted as concentration-response curves fitted to a sigmoidal 4-parameter logistic model to calculate IC50 values (Scigilian Analyze).

Assay [2] deals with human PARG (PARG-NanoLuc fusion in HEK293T cells) (Homo sapiens (Human), UniProt Q86W56). Kind of assay: PARG NanoBRET-based cellular target engagement assay. The assay is classed as cell-based. Conditions: HEK293T cells transfected with PARG-NanoLuc, NanoBRET probe 0.89 μM, 2 hours; read-out: PARG TE IC50. The procedure: PARG Nano-luciferase construct: The PARG-NanoLuc® fusion vector was generated by Promega, by inserting the full length human PARG cDNA sequence encoding the 976 amino acid protein (Gene ID: 8505, UniProt: Q86W56) into the pNLF1-C [CMV/Hygro] vector (C-terminal fusions with NanoLuc® enzyme).
Sequence of human PARG (PARG-NanoLuc fusion in HEK293T cells) (Q86W56 whole entry, the tested form may be a part): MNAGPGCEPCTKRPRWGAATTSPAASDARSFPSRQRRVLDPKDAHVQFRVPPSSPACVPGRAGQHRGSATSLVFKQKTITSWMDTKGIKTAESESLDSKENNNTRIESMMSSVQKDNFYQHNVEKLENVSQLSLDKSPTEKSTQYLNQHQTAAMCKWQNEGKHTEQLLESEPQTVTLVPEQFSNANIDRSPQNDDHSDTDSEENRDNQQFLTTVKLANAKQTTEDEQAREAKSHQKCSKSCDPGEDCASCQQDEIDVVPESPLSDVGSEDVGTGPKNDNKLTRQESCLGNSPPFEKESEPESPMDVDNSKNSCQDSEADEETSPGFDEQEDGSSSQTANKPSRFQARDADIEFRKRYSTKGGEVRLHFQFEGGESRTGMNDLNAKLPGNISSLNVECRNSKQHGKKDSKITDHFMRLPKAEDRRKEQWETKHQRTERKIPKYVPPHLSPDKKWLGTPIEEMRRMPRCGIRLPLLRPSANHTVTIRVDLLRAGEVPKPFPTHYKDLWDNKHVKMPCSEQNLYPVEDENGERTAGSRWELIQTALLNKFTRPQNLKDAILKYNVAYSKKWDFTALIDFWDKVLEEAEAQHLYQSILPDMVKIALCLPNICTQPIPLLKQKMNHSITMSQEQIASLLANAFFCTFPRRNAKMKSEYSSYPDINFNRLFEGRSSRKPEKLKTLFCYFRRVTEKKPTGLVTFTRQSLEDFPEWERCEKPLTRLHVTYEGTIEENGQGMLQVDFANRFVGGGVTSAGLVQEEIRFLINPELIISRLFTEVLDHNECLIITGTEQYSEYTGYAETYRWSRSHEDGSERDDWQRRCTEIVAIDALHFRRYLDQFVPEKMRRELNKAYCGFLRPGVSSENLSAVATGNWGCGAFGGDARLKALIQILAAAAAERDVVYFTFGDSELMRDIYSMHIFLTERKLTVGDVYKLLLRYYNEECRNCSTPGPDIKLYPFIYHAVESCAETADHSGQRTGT
PARG target engagement tracer synthesis: The NanoBRET tracer for PARG was prepared following a previously reported general tracer synthesis procedure.
PARG Probe Displacement Assay Using NanoBRET: HEK293T (DSMZ #ACC 635) cells transiently transfected with the PARG-NanoLuc fusion construct were resuspended in phenol red-free OptiMEM (Gibco #11058-021) to a concentration of 2.4×10^5 cells/mL. 9 μL per well were then added to a white 384-well low volume microplate (Greiner #784080) and incubated for 24 hours under standard growth conditions.
Then compound was dispensed into each well using an Echo dispenser (BeckmanCoulter) to yield the pre-specified final concentration of the range of concentrations to be tested (typically 8-point serial concentrations ranging from either from 0.01 to 10 μM, or from 0.001 to 1 μM, or from 0.0001 to 0.1 μM), and being volume-corrected with 100% DMSO (0.5% final DMSO concentration in reaction mixtures).
After mixing and an incubation at room temperature for 15 min 1 μl of the NanoBRET probe (at 0.89 μM final concentration) was added to the microplate using a multichannel pipette. The plate was mixed and incubated in a 5% CO2 environment at 37° C. for 2 hours, and then 5 μL per well of a solution consisting of a 1:31.25 dilution of Nano-Glo substrate (Promega) and a 1:500 dilution of NanoLuc extracellular inhibitor (Promega) in phenol red-free OptiMEM was added to each well followed by another mixing step. Filtered luminescence was measured on an EnVision plate reader (PerkinElmer) equipped with a 460 nm filter (donor) and a 645 nm filter (acceptor). BRET ratios were plotted as concentration-response curves fitted to a sigmoidal 4-parameter logistic model to calculate IC50 values (Scigilian Analyze).
On the technique in general: In BRET a luciferase serves as donor, and the signal depends on an acceptor being close.

Assay [3] deals with NCI-H1650. The assay can be described thus: Modified cell proliferation assay (CellTiter-Glo), NCI-H1650. The assay is classed as cell-based. To be noted: Homo sapiens, NCI-H1650; modified protocol, 384-well, 300 cells per well, 120 h; highest concentration tested 30000 nM; read-out: NCI-H1650 GI50 (high PARG dependency). The procedure:
The cell proliferation assay protocol was modified and used for RMUG-S for Examples 12-44, and subsequently used to test Examples 1-44 in the NCI-H1650 cell line.
NCI-H1650 (ATCC, #CRL-5883) or RMUG-S were seeded on day 1 at 300 cells per well in a 384-well plate (Greiner, #781080) that assure assay linearity and optimal signal intensity in 25 μL of RPMI1640 media (Pan Biotech, #P04-22100) containing 10% FCS (Capricorn, #FBS-11A; Lot. CP22-5141) and 1% Glutamine (Pan Biotech, #P04-80100). After incubation for 24 h in humidified chambers at 37° C./5% CO2, compounds/DMSO were dispensed at different concentrations using an Echo 520 (Beckman Coulter). Cells were further incubated for 120 h at 37° C. and 5% CO2. Cells treated with the compound vehicle DMSO were used as negative controls and cells treated with 10 μM Staurosporine (LC Laboratories, #S-9300) served as positive controls.
At day 6 the CellTiter Glo Reagent was prepared according to the instructions of the kit (Promega Inc.): Reagent was mixed 1:1 with cell culture medium. Thereon, mixture and assay plates were equilibrated at room temperature for 20 min. Equal volumes of the reagent-medium-mixture were added to the volume of culture medium present in each well. The plates were mixed at […] for 2 minutes on an orbital shaker (Timix5, Edmund Buehler GmbH). The microplates were then incubated at room temperature for 10 minutes for stabilization of the luminescent signal. Following incubation, the luminescence was recorded on a Victor X5 microplate reader (Perkin Elmer) using a 200 ms integration time. The data was then analyzed with Excel using the XLFIT Plugin (dose response Fit 205) for determination of the concentration necessary for half-maximal inhibition (i.e. the inflection point of the fitted curve).
As quality control the Z′-factor was calculated from 16 positive and negative control values. Only assay results showing a Z′-factor≥0.5 were used for further analysis.

Structures are written as SMILES. Bounds are passed on as bounds.

Sequence of Recombinant His-tagged human PARG protein (Q86W56 whole entry): as the sequence (Q86W56 whole entry, the tested form may be a part) above

As for `CO/N=c1\[nH]c2c(-c3ccc(C(=O)N(C)C)c(C)c3)cc(S(=O)(=O)NC3(C)CC3)cc2c(=O)n1Cc1cnn(C)c1` [Example 14, (E)-4-(2-(methoxyimino)-3-((1-methyl-1H-pyrazol-4-yl)methyl)-6-(N-(1-methylcyclopropyl)sulfamoyl)-4-oxo-1,2,3,4-tetrahydroquinazolin-8-yl)-N,N,2-trimethylbenzamide], the IC50 in assay [1] and in assay [2] was less than 30 nM in each case. The GI50 in assay [3] was less than 500 nM.

As for `CO/N=c1\[nH]c2c(-c3ccc(C(N)=O)cc3)cc(S(=O)(=O)NC3(C)CC3)cc2c(=O)n1Cc1cnn(C)c1` [Example 15, (E)-4-(2-(methoxyimino)-3-((1-methyl-1H-pyrazol-4-yl)methyl)-6-(N-(1-methylcyclopropyl)sulfamoyl)-4-oxo-1,2,3,4-tetrahydroquinazolin-8-yl)benzamide], the IC50 in assay [1] was less than 30 nM; in assay [2] it was 30 to 99 nM. Further, the GI50 in assay [3] is greater than 2000 nM.

Consider `CO/N=c1\[nH]c2c(-c3ccc(C(C)=O)cc3)cc(S(=O)(=O)NC3(C)CC3)cc2c(=O)n1Cc1cnn(C)c1` [Example 16, (E)-8-(4-acetylphenyl)-2-(methoxyimino)-3-((1-methyl-1H-pyrazol-4-yl)methyl)-N-(1-methylcyclopropyl)-4-oxo-1,2,3,4-tetrahydroquinazoline-6-sulfonamide], for which the IC50 in assay [1] and in assay [2] was less than 30 nM each time. Also, the GI50 in assay [3] was greater than 2000 nM.

With `CO/N=c1\[nH]c2c(-c3ccc(CN)cc3)cc(S(=O)(=O)NC3(C)CC3)cc2c(=O)n1Cc1cnn(C)c1` [Example 17, (E)-8-(4-(aminomethyl)phenyl)-2-(methoxyimino)-3-((1-methyl-1H-pyrazol-4-yl)methyl)-N-(1-methylcyclopropyl)-4-oxo-1,2,3,4-tetrahydroquinazoline-6-sulfonamide], the figures for the IC50 in assay [1] and in assay [2] were 30 to 99 nM and 100 to 1000 nM, respectively. Besides, the GI50 in assay [3] is greater than 2000 nM.

With `CO/N=c1\[nH]c2c(-c3ccc(C(=O)C4(C)CC4)cc3)cc(S(=O)(=O)NC3(C)CC3)cc2c(=O)n1Cc1cnn(C)c1` [Example 18, (E)-2-(methoxyimino)-3-((1-methyl-1H-pyrazol-4-yl)methyl)-8-(4-(1-methylcyclopropane-1-carbonyl)phenyl)-N-(1-methylcyclopropyl)-4-oxo-1,2,3,4-tetrahydroquinazoline-6-sulfonamide], the IC50 in assay [1] and in assay [2] was less than 30 nM each time. For the same compound, the GI50 in assay [3] lay in the range of 500 to 2000 nM.

For the compound `CO/N=c1\[nH]c2c(-c3ccc(C(=O)N(C)C)nc3)cc(S(=O)(=O)NC3(C)CC3)cc2c(=O)n1Cc1cnn(C)c1` [Example 19, (E)-5-(2-(methoxyimino)-3-((1-methyl-1H-pyrazol-4-yl)methyl)-6-(N-(1-methylcyclopropyl)sulfamoyl)-4-oxo-1,2,3,4-tetrahydroquinazolin-8-yl)-N,N-dimethylpicolinamide], the IC50 in assay [1] and in assay [2] was less than 30 nM throughout. The GI50 in assay [3] was 500 to 2000 nM.

As to `CO/N=c1\[nH]c2c(-c3ccc(C(=O)N(C)C)cn3)cc(S(=O)(=O)NC3(C)CC3)cc2c(=O)n1Cc1cnn(C)c1` [Example 20, (E)-6-(2-(methoxyimino)-3-((1-methyl-1H-pyrazol-4-yl)methyl)-6-(N-(1-methylcyclopropyl)sulfamoyl)-4-oxo-1,2,3,4-tetrahydroquinazolin-8-yl)-N,N-dimethylnicotinamide], the IC50 in assay [1] and in assay [2] was less than 30 nM throughout. Also, the GI50 in assay [3] was 500 to 2000 nM.

`CO/N=c1\[nH]c2c(-c3cnc(C(=O)N(C)C)[nH]3)cc(S(=O)(=O)NC3(C)CC3)cc2c(=O)n1Cc1cnn(C)c1` [Example 23, (E)-5-(2-(methoxyimino)-3-((1-methyl-1H-pyrazol-4-yl)methyl)-6-(N-(1-methylcyclopropyl)sulfamoyl)-4-oxo-1,2,3,4-tetrahydroquinazolin-8-yl)-N,N-dimethyl-1H-imidazole-2-carboxamide]: the IC50 in assay [1] and in assay [2] was less than 30 nM in each case. Besides, the GI50 in assay [3] is 500 to 2000 nM.

As for `CO/N=c1\[nH]c2c(N3CCN(C(=O)CC(F)(F)F)[C@H](C)C3)cc(S(=O)(=O)NC3(C)CC3)cc2c(=O)n1Cc1cnn(C)c1` [Example 31, (R,E)-2-(methoxyimino)-3-((1-methyl-1H-pyrazol-4-yl)methyl)-8-(3-methyl-4-(3,3,3-trifluoropropanoyl)piperazin-1-yl)-N-(1-methylcyclopropyl)-4-oxo-1,2,3,4-tetrahydroquinazoline-6-sulfonamide], the IC50 in assay [1] and in assay [2] was less than 30 nM throughout. Further, the GI50 in assay [3] was less than 500 nM.

As to `CO/N=c1\[nH]c2c(N3CCN(C(=O)C4(C#N)CC4)[C@H](C)C3)cc(S(=O)(=O)NC3(C)CC3)cc2c(=O)n1Cc1cnn(C)c1` [Example 33, (R,E)-8-(4-(1-cyanocyclopropane-1-carbonyl)-3-methylpiperazin-1-yl)-2-(methoxyimino)-3-((1-methyl-1H-pyrazol-4-yl)methyl)-N-(1-methylcyclopropyl)-4-oxo-1,2,3,4-tetrahydroquinazoline-6-sulfonamide], the IC50 in assay [1] and in assay [2] was less than 30 nM throughout. Besides, the GI50 in assay [3] is less than 500 nM.

Regarding `CO/N=c1\[nH]c2c(N3CCN(C(=O)C4(N(C)C)CC4)[C@H](C)C3)cc(S(=O)(=O)NC3(C)CC3)cc2c(=O)n1Cc1cnn(C)c1` [Example 34, (R,E)-8-(4-(1-(dimethylamino)cyclopropane-1-carbonyl)-3-methylpiperazin-1-yl)-2-(methoxyimino)-3-((1-methyl-1H-pyrazol-4-yl)methyl)-N-(1-methylcyclopropyl)-4-oxo-1,2,3,4-tetrahydroquinazoline-6-sulfonamide], the IC50 in assay [1] and in assay [2] was less than 30 nM in each case. The GI50 in assay [3] is less than 500 nM.

By IC50 is commonly meant the point on the concentration scale where inhibition reaches its midpoint. What is called GI50 is the concentration at which growth is held to half of that of the control.

Values taken from patent publication US20260042754A1, “Substituted Bicyclic Heteroaryl Sulfonamide Derivatives for the Treatment of Cancer” (NODUS ONCOLOGY LIMITED, priority 2022, published 2026).
